{"source": "patent US20260041660A1", "about": "(priority 2020, published 2026)", "key": {"MAPK and JAK": {"test_system": "MAPK and JAK", "assay": "TPA pro-apoptotic effects via immune-regulatory kinases", "format": "cell-based", "conditions": "through interactions with MAPK and JAK", "from_the_text": "(§1) The instant disclosure, in conjunction with ongoing pilot studies by the inventors, illustrates a wide range of pro-immune and anti-inflammatory effects of TPA that will potently mediate reduction and/or prevention of ARDS conditions and symptoms, as well as other pathogenic conditions and symptoms associated with severe COVID-19 disease. […] Exemplary pilot studies have shown that TPA compounds will effectively treat and prevent lymphocytopenia, by virtue that these compounds promote full range of pro-immune effects relating to activation, proliferation and survival of lymphocytes. […] Neutrophils are evidently “hijacked” and reprogrammed by SARS-COV-2 proteins (and other emergent pro-inflammatory factors that emerge in the course of COVID-19 disease development), leading to profound dysregulation of neutrophil immune and inflammatory activities. […]"}, "MAPK": {"test_system": "MAPK", "assay": "Inventors' studies: TPA effect on MAPK hyper-stimulation", "format": "cell-based", "conditions": "reduced MAPK activation and phosphorylation activity", "from_the_text": "(§2) More complex effects of TPA on MAPK pathways involve TPA regulation of immune cell differentiation and apoptosis."}, "[1]": {"test_system": "peripheral blood lymphocytes (predominantly T-cells)", "assay": "Pilot studies: effect of TPA on peripheral blood lymphocytes", "format": "cell-based", "from_the_text": "In addition to minimizing hyper-inflammatory activities of macrophages and neutrophils, TPA compositions and methods of the invention mediate protection of lymphocytes (prolongation of lifespan), and also directly stimulate lymphocyte proliferation and differentiation. […] This activity will protect and expand lymphocyte numbers, which in turn will mediate potent anti-viral effects.\nas §1"}, "[2]": {"format": "in vivo, C57Bl/6 mouse"}, "PKC": {"test_system": "PKC", "assay": "Inventors' studies: TPA effect on PKC", "format": "biochemical", "from_the_text": "as §2"}, "[3]": {"test_system": "murine peritoneal macrophages", "conditions": "via suppression of ERK1/2 signaling; cited from earlier work"}, "IL-6": {"test_system": "IL-6", "conditions": "in vitro and in vivo; Stat3, Akt, ERK1/2 pathways; cited from earlier work"}, "[4]": {"conditions": "polar organic solvents and water; cited from earlier work"}, "HIN1": {"test_system": "HIN1", "conditions": "reducing infiltration of inflammatory cells, inhibiting pro-inflammatory cytokines; cited from earlier work"}, "SARS-COV-2 [5]": {"test_system": "SARS-COV-2", "conditions": "recent in vitro studies; cited from earlier work"}, "SARS-COV-2 [6]": {"test_system": "SARS-COV-2", "conditions": "after 48 h of infection with SARS-COV-2; cited from earlier work"}, "COVID-19": {"test_system": "COVID-19", "conditions": "human, in vivo; cited from earlier work"}}}
{"molecule": "CCCCCCCCCCCCCC(=O)O[C@@H]1[C@H](C)[C@@]2(O)[C@@H](C=C(CO)C[C@]3(O)C(=O)C(C)=C[C@@H]23)[C@@H]2C(C)(C)[C@]12OC(C)=O", "note": "(stereo in doubt) [TPA, 12-O-tetradecanoylphorbol-13-acetate]", "values": [{"measurement": "apoptotic effects", "setting": "MAPK and JAK", "value": "pro-apoptotic effects"}, {"measurement": "MAPK hyper-stimulation", "setting": "MAPK", "value": "clinically beneficial reduction in MAPK hyper-stimulation"}, {"measurement": "mitogenic effect on peripheral blood lymphocytes", "setting": "[1]", "value": "direct, clinically effective mitogenic effect"}, {"measurement": "TNFα content in BALF samples", "setting": "[2]; 48 hrs", "value": "reduction of TNFα content"}, {"measurement": "protein extravasation in BALF samples", "setting": "[2]; 48 hrs", "value": "reduction of protein extravasation in BALF samples"}, {"measurement": "ROS generation of lavaged neutrophils", "setting": "[2]; after 48 hours", "value": "significant reduction in ROS generation"}, {"measurement": "BALF WBC ROS production", "setting": "[2]; mouse, in vivo", "value": "significantly lower"}, {"measurement": "LPS-induced EBD extravasation", "setting": "[2]; mouse, in vivo", "value": "suppression of LPS-induced EBD extravasation"}, {"measurement": "hyper-elevation of IL-6, IL-10, TNFα, MIP2 and other pro-inflammatory cytokines", "setting": "[2]; mouse, in vivo", "value": "block or reduce hyper-elevation"}, {"measurement": "monocyte/macrophage and neutrophil counts", "setting": "[2]; mouse, in vivo", "value": "reduction in monocyte/macrophage and neutrophil counts"}, {"measurement": "neutrophil and RBC into pulmonary interstitial spaces and alveolar airspaces", "setting": "[2]; mouse, in vivo", "value": "marked reduction in neutrophil and RBC"}, {"measurement": "presence of neutrophils in BALF", "setting": "[2]; mouse, in vivo", "value": "significantly reduced"}, {"measurement": "swelling of the alveolar walls", "setting": "[2]; mouse, in vivo", "value": "reduced swelling of the alveolar walls"}, {"measurement": "histopathologic changes of the lung", "setting": "[2]; mouse, in vivo, iv", "value": "markedly suppressed"}, {"measurement": "effect on PKC", "setting": "PKC", "value": "not only activates, but stabilizes PKC"}]}
{"molecule": "C=C1CC[C@@H]2[C@](C)(CO)[C@H](O)CC[C@@]2(C)[C@@H]1C/C=C1/C(=O)OC[C@H]1O", "note": "[Andrographolide]", "values": [{"measurement": "production of TNF-α and interleukin-12", "setting": "[3]", "value": "inhibits the production of TNF-α and interleukin-12"}, {"measurement": "IL-6 production and IL-6 hyper-inflammatory signaling", "setting": "IL-6", "value": "inhibits IL-6 production and suppresses IL-6 hyper-inflammatory signaling in a dose-dependent manner"}]}
{"molecule": "CC1=C[C@H]2[C@@]3(O)[C@H](C)[C@@H](O)[C@]4(O)[C@H]([C@@H]3C=C(CO)C[C@]2(O)C1=O)C4(C)C", "note": "[Phorbol]", "values": [{"measurement": "solubility", "setting": "[4]", "value": "well soluble in most polar organic solvents and in water"}]}
{"molecule": "O=C1CCC(N2C(=O)c3ccccc3C2=O)C(=O)N1", "note": "(stereo not shown) [Thalidomide]", "values": [{"measurement": "treatment of infected mice", "setting": "HIN1", "value": "effective in treating HIN1-infected mice"}]}
{"molecule": "CCN(CCO)CCCC(C)Nc1ccnc2cc(Cl)ccc12", "note": "(stereo not shown) [hydroxychloroquine]", "values": [{"measurement": "viral load/titer of SARS-COV-2", "setting": "SARS-COV-2 [5]", "value": "effectively reduces viral load/titer of SARS-COV-2"}]}
{"molecule": "Ivermectin", "values": [{"measurement": "reduce viral RNA", "setting": "SARS-COV-2 [6]", "value": "up to 5,000 fold"}]}
{"molecule": "TCZ: recombinant human anti-IL-6 monoclonal antibody that binds soluble and membrane-bound IL-6 receptors", "values": [{"measurement": "fever and other ARDS symptoms", "setting": "COVID-19", "value": "reduces fever and other ARDS symptoms"}, {"measurement": "patients with opacity lung lesion on CT scans absorbed", "setting": "COVID-19", "value": 90.5, "unit": "%"}, {"measurement": "patients with peripheral lymphocyte levels returned to normal", "setting": "COVID-19", "value": 52.6, "unit": "%"}, {"measurement": "treated subjects showing improved oxygenation", "setting": "COVID-19", "value": 75.0, "unit": "%"}]}
